Results from patent US10934326B2, “Peripheral modifications on pocket-redesigned vancomycin analogs synergistically improve antimicrobial potency and durability” (priority 2016, dated 2021).
≈ marks a conversion by molar mass, not a printed value.

Tests used:
[1] = test system: vancomycin-resistant Enterococcus faecalis (VanA VRE, BM4166); settings: BM 4166; previously reported data; cited from earlier work
[2] = test system: Enterococcus faecium (VanA VRE, ATCC BAA-2317); settings: previously reported data; cited from earlier work
[3] = test system: vancomycin-resistant Enterococcus faecalis (VanA VRE, BM4166); assay: In vitro antimicrobial assay (MIC), VanA E. faecalis; assay type: cell-based; settings: for MIC: Enterococcus faecalis, VRE, read-out: Antimicrobial Activity, MIC, VanA E. faecalis; for antibiotic susceptibility profile of the strain: VanA E. faecalis BM 4166
Description: (§1) One day before a study was run, fresh cultures of vancomycin-sensitive Staphylococcus aureus (VSSA strain ATCC 25923), methicillin and oxacillin-resistant Staphylococcus aureus subsp. aureus (MRSA strain ATCC 43300), vancomycin-resistant Enterococcus faecalis (VanA VRE, BM4166), Enterococcus faecium (VanA VRE, ATCC BAA-2317), vancomycin-resistant Enterococcus faecalis (VanB VRE, strain ATCC 51299), Escherichia coli (ATCC 25922), Acinetobacter baumannii (ATCC BAA-1710), Pseudomonas aeruginosa (ATCC 15442), Klebsiella pneumoniae (ATCC 700603) were inoculated and grown in an orbital shaker at 37° C. in 100% Mueller-Hinton broth (VSSA, MRSA and VanB VRE), 100% brain-heart infusion broth (VanA VRE, A. baumannii and K. pneumoniae) or 100% Luria broth (E. coli and P. aeruginosa). After 24 hours, the bacterial stock solutions were serially diluted with the culture medium (10% Mueller-Hinton broth for VSSA, MRSA and VanB VRE or 10% brain-heart infusion broth for VanA VRE A. baumannii and K. pneumoniae or 10% Luria Broth for E. coli and P. aeruginosa) to achieve a turbidity equivalent to a 1:100 dilution of a 0.5 M McFarland solution. This diluted bacterial stock solution was then inoculated in a 96-well V-shaped glass coated microtiter plate, supplemented with serial diluted aliquots of the antibiotic solution in DMSO (4 μL), to achieve a total assay volume of 0.1 mL. The plate was then incubated at 37° C. for 18 hours, after which minimal inhibitory concentrations (MICs) were determined by monitoring the cell growth (observed as a pellet) in the wells.
(§2) The lowest concentration of antibiotic (in μg/mL) capable of eliminating cell growth in the wells is the reported MIC value. The reported MIC values for the vancomycin analogues were determined against vancomycin as a standard in the first well.*
(§3) [*Clinical and Laboratory Standards Institute. Methods for Dilution Antimicrobial Susceptibility Tests for Bacteria That Grow Aerobically; Approved Standard, 7th ed.; CLSI document M07-A8; Clinical and Laboratory Standards Institute: Wayne, Pa., 2009.]

[4] = test system: Enterococcus faecium (VanA VRE, ATCC BAA-2317); assay: In vitro antimicrobial assay (MIC), VanA E. faecium; assay type: cell-based; settings: for MIC: Enterococcus faecium, read-out: Antimicrobial Activity, MIC, VanA E. faecium; for antibiotic susceptibility profile of the strain: VanA E. faecium ATCC BAA-2317
Description: as §1, §2, §3

[5] = test system: VanA VRE (E. faecalis BM 4166 and E. faecium ATCC BAA-2317); assay: Cell wall permeability assay (propidium iodide uptake); assay type: cell-based, Enterococcus faecalis; Enterococcus faecium
Description: The effect of the compounds on cell membrane permeability was examined by measuring cytoplasmic membrane uptake of the fluorescent probe propidium iodide in the same VanA vancomycin-resistant E. faecalis (BM 4166) and E. faecium (ATCC BAA-2317) strains. This fluorescent probe only enters cells with permeabilized cell membranes and is detected by the emission of fluorescence upon intracellular nucleic acid binding [Boulos et al., J Microbiol Methods 1999, 37(1):77-86].
Fresh, mid-log phase VanA VRE in pH 7.2 buffer at 25° C. were preincubated with propidium iodide (10 μM) for 5 minutes before the test compounds were added, monitoring the fluorescence emission at 617 nm (excitation at 535 nm) over time, both pre (5 minutes) and post (15 minutes) compound addition. Rapid and sustained increases in fluorescence intensity are observed immediately upon addition of test compounds that induce bacterial cell membrane permeability.
One day before a study was run, cultures of vancomycin-resistant Enterococcus faecalis (VanA VRE, BM4166) and Enterococcus faecium (VanA VRE, ATCC BAA-2317), were inoculated and grown in an orbital shaker at 37° C. in 100% brain-heart infusion broth for 12 hours. The above bacterial solution was subjected to a subculture to obtain fresh mid-log phase bacterial cells (total volume of bacterial suspension=7 mL, incubation time=6 hours, OD600=0.6). After the cultured bacteria were harvested (3000 rpm, 4° C., 20 minutes), the white bacterial precipitate was washed and resuspended in 5 mM glucose and 5 mM HEPES buffer (1:1, 500 μL, pH=7.2).
This bacterial suspension (130 μL) was charged into a 96-well black plate with a clear bottom (Corning 3650). The propidium iodide dye (10 μL, 150 μM DMSO solution) was added to the above suspension and the fluorescence was monitored at 25° C. for 5 minutes at 30 second intervals using a microplate reader (Molecular Devices®, Max Gemini EX) at an excitation wavelength of 535 nm and an emission wavelength of 617 nm. The test compound (150 μM, 10 μL) was added to the cell suspension and the fluorescence was monitored at 25° C. for an additional 15 minutes.

Compound	MIC [3]	MIC [4]	antibiotic susceptibility profile of the strain [4]	further results
CNC(CC(C)C)C(=O)NC1C(=O)NC(CC(N)=O)C(=O)NC2C(=N)NC3C(=O)NC(C(=O)NC(C(=O)O)c4cc(O)cc(O)c4-c4cc3ccc4O)C(O)c3ccc(c(Cl)c3)Oc3cc2cc(c3OC2OC(CO)C(O)C(O)C2OC2CC(C)(N)C(O)C(C)O2)Oc2ccc(cc2Cl)[C@@H]1O (stereo partly drawn) [Compound 3]	–	–	–	Antimicrobial Activity, MIC, VanA E. faecalis [1]: 0.5 mg/L; Antimicrobial Activity, MIC, VanA E. faecium [2]: 0.5 mg/L
CN[C@H](CC(C)C)C(=O)N[C@H]1C(=O)N[C@@H](CC(N)=O)C(=O)N[C@H]2C(=O)N[C@@H]3C(=O)N[C@H](C(=O)N[C@H](C(=O)NCCC[N+](C)(C)C)c4cc(O)cc(O)c4-c4cc3ccc4O)[C@H](O)c3ccc(c(Cl)c3)Oc3cc2cc(c3OC2OC(CO)C(O)[C@H](O)[C@@H]2O[C@H]2CC(C)(N)[C@H](O)[C@H](C)O2)Oc2ccc(cc2Cl)[C@H]1O (stereo partly drawn) [Compound 10]	63 mg/L	126 mg/L	–	induced cell membrane permeability (propidium uptake) ([5]; 10 μM compound): did not do so; induced cell membrane permeability (propidium uptake) ([5]; 100 μM compound): exhibited this induced permeability
CC1(C)S[C@@H]2[C@H](NC(=O)Cc3ccccc3)C(=O)N2[C@H]1C(=O)O [benzylpenicillin]	–	–	resistant	–
CC[C@H]1OC(=O)[C@H](C)[C@@H](O[C@H]2C[C@@](C)(OC)[C@@H](O)[C@H](C)O2)[C@H](C)[C@@H](O[C@@H]2O[C@H](C)C[C@H](N(C)C)[C@H]2O)[C@](C)(O)C[C@@H](C)C(=O)[C@H](C)[C@@H](O)[C@]1(C)O [erythromycin]	–	–	resistant	antibiotic susceptibility profile of the strain [3]: resistant
CCCCCCCCCCCCCC[N+](C)(C)CCCNC(=O)[C@H]1NC(=O)[C@H]2NC(=O)[C@@H](NC(=O)[C@@H]3NC(=O)[C@H](CC(N)=O)NC(=O)[C@H](NC(=O)[C@@H](CC(C)C)NC)[C@H](O)c4ccc(c(Cl)c4)Oc4cc3cc(c4OC3OC(CO)C(O)[C@H](O)[C@@H]3O[C@H]3CC(C)(NCc4ccc(-c5ccc(Cl)cc5)cc4)[C@H](O)[C@H](C)O3)Oc3ccc(cc3Cl)[C@H]2O)c2ccc(O)c(c2)-c2c(O)cc(O)cc21 (stereo partly drawn) [Compound 17]	2 mg/L	2 mg/L	–	–
CN[C@H](CC(C)C)C(=O)N[C@H]1C(=O)N[C@@H](CC(N)=O)C(=O)N[C@H]2C(=O)N[C@@H]3C(=O)N[C@H](C(=O)N[C@H](C(=O)NCCCN(C)C)c4cc(O)cc(O)c4-c4cc3ccc4O)[C@H](O)c3ccc(c(Cl)c3)Oc3cc2cc(c3OC2OC(CO)C(O)[C@H](O)[C@@H]2O[C@H]2CC(C)(N)[C@H](O)[C@H](C)O2)Oc2ccc(cc2Cl)[C@H]1O (stereo partly drawn) [Compound 9]	500 mg/L (≈ 326 µM)	500 mg/L (≈ 326 µM)	–	induced cell membrane permeability (propidium uptake) ([5]; 10 μM compound): did not do so
CN[C@H](CC(C)C)C(=O)N[C@H]1C(=O)N[C@@H](CC(N)=O)C(=O)N[C@H]2C(=O)N[C@@H]3C(=O)N[C@H](C(=O)N[C@H](C(=O)NCCCN(C)C)c4cc(O)cc(O)c4-c4cc3ccc4O)[C@H](O)c3ccc(c(Cl)c3)Oc3cc2cc(c3OC2OC(CO)C(O)[C@H](O)[C@@H]2O[C@H]2CC(C)(NCc3ccc(-c4ccc(Cl)cc4)cc3)[C@H](O)[C@H](C)O2)Oc2ccc(cc2Cl)[C@H]1O (stereo partly drawn) [Compound 14]	5 mg/L (≈ 2.88 µM)	5 mg/L (≈ 2.88 µM)	–	–
CN[C@H](CC(C)C)C(=O)N[C@H]1C(=O)N[C@@H](CC(N)=O)C(=O)N[C@H]2C(=O)N[C@@H]3C(=O)N[C@H](C(=O)N[C@H](C(=O)NCCC[N+]4(C)CCCC4)c4cc(O)cc(O)c4-c4cc3ccc4O)[C@H](O)c3ccc(c(Cl)c3)Oc3cc2cc(c3OC2OC(CO)C(O)[C@H](O)[C@@H]2O[C@H]2CC(C)(N)[C@H](O)[C@H](C)O2)Oc2ccc(cc2Cl)[C@H]1O (stereo partly drawn) [Compound 11]	4 mg/L	2 mg/L	–	induced cell membrane permeability (propidium uptake) ([5]; 10 μM compound): produced pronounced, rapid cell membrane permeability
CC1(C)S[C@@H]2[C@H](NC(=O)[C@H](N)c3ccccc3)C(=O)N2[C@H]1C(=O)O [ampicillin]	–	–	resistant	–
teicoplanin	–	–	resistant	antibiotic susceptibility profile of the strain [3]: resistant
gentamicin	–	–	–	antibiotic susceptibility profile of the strain [3]: resistant
CN[C@H](CC(C)C)C(=O)N[C@H]1C(=O)N[C@@H](CC(N)=O)C(=O)N[C@H]2C(=O)N[C@@H]3C(=O)N[C@H](C(=O)N[C@H](C(=O)NCCC[N+]4(C)CCCC4)c4cc(O)cc(O)c4-c4cc3ccc4O)[C@H](O)c3ccc(c(Cl)c3)Oc3cc2cc(c3OC2OC(CO)C(O)[C@H](O)[C@@H]2O[C@H]2CC(C)(NCc3ccc(-c4ccc(Cl)cc4)cc3)[C@H](O)[C@H](C)O2)Oc2ccc(cc2Cl)[C@H]1O (stereo partly drawn) [Compound 16]	2 mg/L	2 mg/L	–	–
O=C(N[C@H](CO)[C@H](O)c1ccc([N+](=O)[O-])cc1)C(Cl)Cl [chloramphenicol]	–	–	–	antibiotic susceptibility profile of the strain [3]: resistant
CCN(CC)CCS(=O)(=O)[C@@H]1CCN2C(=O)c3coc(n3)CC(=O)C[C@H](O)/C=C(C)/C=C/CNC(=O)/C=C/[C@@H](C)[C@@H](C(C)C)OC(=O)[C@@H]12 [dalfopristine]	–	–	sensitive	–
